In ChEMBL document CHEMBL3045692, “Effectiveness of cyproconazole to control Armillaria root rot of apple, walnut and kiwifruit” (Crop Prot, 2012):
≈ marks a conversion by molar mass, not a printed value.

Experiments:
Armillaria mellea [1] = assay: Fungicidal activity against Armillaria mellea infected walnut assessed as mycelial growth inhibition at Caddy 10WP formulation at 25 degC measured every week for 1 month; type: functional, organism-based
Armillaria mellea [2] = assay: Fungicidal activity against Armillaria mellea infected kiwifruit assessed as mycelial growth inhibition at Caddy 10WP formulation at 25 degC measured every week for 1 month; type: functional, organism-based
Armillaria mellea [3] = assay: Fungicidal activity against Armillaria mellea infected apple assessed as mycelial growth inhibition at Caddy 10WP formulation at 25 degC measured every week for 1 month; type: functional, organism-based
Armillaria mellea [4] = assay: Fungicidal activity against Armillaria mellea infected walnut assessed as mycelial growth inhibition at 30 mg/l formulated as Caddy 10WP at 25 degC measured every week for 1 month (reference value: 0%); type: functional; details: read-out: GI
Armillaria mellea [5] = assay: Fungicidal activity against Armillaria mellea infected walnut assessed as mycelial growth inhibition at 25 mg/l formulated as Caddy 10WP at 25 degC measured every week for 1 month (reference value: 0%); type: functional; details: read-out: GI
Armillaria mellea [6] = assay: Fungicidal activity against Armillaria mellea infected walnut assessed as mycelial growth inhibition at 20 mg/l formulated as Caddy 10WP at 25 degC measured every week for 1 month (reference value: 0%); type: functional; details: read-out: GI
Armillaria mellea [7] = assay: Fungicidal activity against Armillaria mellea infected walnut assessed as mycelial growth inhibition at 15 mg/l formulated as Caddy 10WP at 25 degC measured every week for 1 month (reference value: 0%); type: functional; details: read-out: GI
Armillaria mellea [8] = assay: Fungicidal activity against Armillaria mellea infected walnut assessed as mycelial growth inhibition at 10 mg/l formulated as Caddy 10WP at 25 degC measured every week for 1 month (reference value: 0%); type: functional; details: read-out: GI
Armillaria mellea [9] = assay: Fungicidal activity against Armillaria mellea infected walnut assessed as mycelial growth inhibition at 5 mg/l formulated as Caddy 10WP at 25 degC measured every week for 1 month (reference value: 0%); type: functional; details: read-out: GI
Armillaria mellea [10] = assay: Fungicidal activity against Armillaria mellea infected kiwifruit assessed as mycelial growth inhibition at 30 mg/l formulated as Caddy 10WP at 25 degC measured every week for 1 month (reference value: 0%); type: functional; details: read-out: GI
Armillaria mellea [11] = assay: Fungicidal activity against Armillaria mellea infected kiwifruit assessed as mycelial growth inhibition at 25 mg/l formulated as Caddy 10WP at 25 degC measured every week for 1 month (reference value: 0%); type: functional; details: read-out: GI
Armillaria mellea [12] = assay: Fungicidal activity against Armillaria mellea infected kiwifruit assessed as mycelial growth inhibition at 20 mg/l formulated as Caddy 10WP at 25 degC measured every week for 1 month (reference value: 0%); type: functional; details: read-out: GI
Armillaria mellea [13] = assay: Fungicidal activity against Armillaria mellea infected kiwifruit assessed as mycelial growth inhibition at 15 mg/l formulated as Caddy 10WP at 25 degC measured every week for 1 month (reference value: 0%); type: functional; details: read-out: GI
Armillaria mellea [14] = assay: Fungicidal activity against Armillaria mellea infected kiwifruit assessed as mycelial growth inhibition at 10 mg/l formulated as Caddy 10WP at 25 degC measured every week for 1 month (reference value: 0%); type: functional; details: read-out: GI
Armillaria mellea [15] = assay: Fungicidal activity against Armillaria mellea infected kiwifruit assessed as mycelial growth inhibition at 5 mg/l formulated as Caddy 10WP at 25 degC measured every week for 1 month (reference value: 0%); type: functional; details: read-out: GI
Armillaria mellea [16] = assay: Fungicidal activity against Armillaria mellea infected apple assessed as mycelial growth inhibition at 30 mg/l formulated as Caddy 10WP at 25 degC measured every week for 1 month (reference value: 0%); type: functional; details: read-out: GI
Armillaria mellea [17] = assay: Fungicidal activity against Armillaria mellea infected apple assessed as mycelial growth inhibition at 25 mg/l formulated as Caddy 10WP at 25 degC measured every week for 1 month (reference value: 0%); type: functional; details: read-out: GI
Armillaria mellea [18] = assay: Fungicidal activity against Armillaria mellea infected apple assessed as mycelial growth inhibition at 20 mg/l formulated as Caddy 10WP at 25 degC measured every week for 1 month (reference value: 0%); type: functional; details: read-out: GI
Armillaria mellea [19] = assay: Fungicidal activity against Armillaria mellea infected apple assessed as mycelial growth inhibition at 15 mg/l formulated as Caddy 10WP at 25 degC measured every week for 1 month (reference value: 0%); type: functional; details: read-out: GI
Armillaria mellea [20] = assay: Fungicidal activity against Armillaria mellea infected apple assessed as mycelial growth inhibition at 10 mg/l formulated as Caddy 10WP at 25 degC measured every week for 1 month (reference value: 0%); type: functional; details: read-out: GI
Armillaria mellea [21] = assay: Fungicidal activity against Armillaria mellea infected apple assessed as mycelial growth inhibition at 5 mg/l formulated as Caddy 10WP at 25 degC measured every week for 1 month (reference value: 0%); type: functional; details: read-out: GI

## CC(C1CC1)C(O)(Cn1cncn1)c1ccc(Cl)cc1 (stereo unspecified) [CYPROCONAZOLE]
Armillaria mellea [1]
  EC50: 6.73 µg/mL (≈ 23.1 µM)
Armillaria mellea [2]
  EC50: 5.72 µg/mL (≈ 19.6 µM)
Armillaria mellea [3]
  EC50: 5.19 µg/mL (≈ 17.8 µM)
Armillaria mellea [4]
  inhibition of growth at 30 µg/mL: 100%
Armillaria mellea [5]
  inhibition of growth at 25 µg/mL: 100%
Armillaria mellea [6]
  inhibition of growth at 20 µg/mL: 100%
Armillaria mellea [7]
  inhibition of growth at 15 µg/mL: 95%
Armillaria mellea [8]
  inhibition of growth at 10 µg/mL: 73%
Armillaria mellea [9]
  inhibition of growth at 5 µg/mL: 41%
Armillaria mellea [10]
  inhibition of growth at 30 µg/mL: 100%
Armillaria mellea [11]
  inhibition of growth at 25 µg/mL: 100%
Armillaria mellea [12]
  inhibition of growth at 20 µg/mL: 100%
Armillaria mellea [13]
  inhibition of growth at 15 µg/mL: 100%
Armillaria mellea [14]
  inhibition of growth at 10 µg/mL: 86%
Armillaria mellea [15]
  inhibition of growth at 5 µg/mL: 47%
Armillaria mellea [16]
  inhibition of growth at 30 µg/mL: 100%
Armillaria mellea [17]
  inhibition of growth at 25 µg/mL: 100%
Armillaria mellea [18]
  inhibition of growth at 20 µg/mL: 100%
Armillaria mellea [19]
  inhibition of growth at 15 µg/mL: 98%
Armillaria mellea [20]
  inhibition of growth at 10 µg/mL: 89%
Armillaria mellea [21]
  inhibition of growth at 5 µg/mL: 56%
